By IC50 is commonly meant the midpoint of a concentration-inhibition curve.

For one compound, IC50 results are on record in BindingDB's records for doi:10.1021/jm049388p (Merck Research Laboratories, 2004).

The target in this test is Beta-secretase 1 (Homo sapiens, UniProt P56817). Nature of the test: In Vitro BACE1 Activity Assay. The settings on record: pH 4.5; 22 °C. As for the experimental part: The assay was performed using a 96-well format on a HPLC equipped with four 96-well plate holders. Test compounds were preincubated with enzymes for 30min, followed by the addition of substrate. The solution was then incubated for an additional 30 min at room temperature. After the reaction was terminated, the solution was filtered, and the filtrate was subjected to HPLC analysis. The substrate and product were monitored by fluorescence detection (340nm excitation, 440 nm emission).
Sequence of Beta-secretase 1 (P56817 whole entry): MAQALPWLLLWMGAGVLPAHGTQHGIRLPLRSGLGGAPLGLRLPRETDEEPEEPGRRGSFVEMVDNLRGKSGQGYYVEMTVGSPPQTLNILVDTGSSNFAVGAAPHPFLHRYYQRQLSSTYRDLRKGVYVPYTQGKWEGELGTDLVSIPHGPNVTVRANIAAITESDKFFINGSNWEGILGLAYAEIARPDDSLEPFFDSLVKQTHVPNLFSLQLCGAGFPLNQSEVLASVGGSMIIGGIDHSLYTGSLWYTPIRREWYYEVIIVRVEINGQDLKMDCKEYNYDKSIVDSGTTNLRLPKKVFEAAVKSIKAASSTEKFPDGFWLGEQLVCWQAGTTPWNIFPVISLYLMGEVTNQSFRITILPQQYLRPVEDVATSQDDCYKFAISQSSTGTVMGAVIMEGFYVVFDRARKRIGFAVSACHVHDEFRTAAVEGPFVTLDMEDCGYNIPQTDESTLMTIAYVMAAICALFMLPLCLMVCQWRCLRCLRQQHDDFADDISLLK

Take `C[C@H](NC(=O)c1cc(OCC(=O)NCCCCCN)cc(OS(=O)(=O)Cc2ccccc2)c1)c1ccccc1` [3-{[(5-aminopentyl)carbamoyl]methoxy}-5-{[(1S)-1-phenylethyl]carbamoyl}phenyl 1-phenylmethanesulfonate]: the half-maximal inhibitory concentration (IC50) is more than 100 µM.
